Results published in patent publication US9163027B2, “Substituted triazolo-pyrimidine compounds for modulating cell proliferation differentiation and survival” (STATegics, Inc., priority 2012, dated 2015).

Experiments:
PC12 cells = experiment: PC12 cell survival under serum deprivation (CellTiter-Glo); assay type: cell-based, rat; settings: 72 h serum-free; for minimal effective concentration: Rattus norvegicus, PC-12, read-out: PC12 cell proliferation (CellTiter-Glo ®) Concentration at which RLU increased >25% compared to medium control
Method: Each culture condition was performed in quadruplicate in each experiment and the mean values were calculated. The results represent mean±SEM of relative light unit values when compared to the mean values obtained in the presence of the medium alone. A total of 13 experiments were performed and the statistical significance was analyzed using GraphPad Prism software using ANOVA, followed by paired t-test. The symbol * indicates P-values <0.01.
PC12 cells were cultured in DMEM supplemented with 10% fetal calf serum and 5% horse serum. […] Cell viability was analyzed by CellTiter-Glo® reagent (Promega).
PC12 cells were cultured in DMEM supplemented with 10% fetal calf serum and 5% horse serum. […] Cell survival of the serum-starved cells was analyzed by CellTiter-Glo® reagent luminescence reading.
FIG. 2 illustrates neuroprotective effects of Compounds 1-5 when tested in PC12 cell protection assays. PC12 cells were subjected to serum deprivation as described under FIG. 1.
PC12 cells were cultured in DMEM supplemented with 10% fetal calf serum and 5% horse serum. […] Cell survival of the serum-starved cells was analyzed by CellTiter-Glo® reagent luminescence reading (relative light units, “RLU”). […] “NS” indicates RLU increased <25% when compounds were tested at 5 uM.

[1] = test system: rat ventral mesencephalic dopaminergic neurons; experiment: Protection of primary dopaminergic neurons from 6-OHDA (THir neuron staining); assay type: cell-based; settings: 6.25 uM 6-OHDA 40 min, FIG. 7
Method: Dissociated embryonic D14 rat ventral mesencephalic cells were used.
Dopaminergic neurons play a key role in the pathogenesis of Parkinson's disease and compounds enhancing survival of these cells have significant therapeutic potential. Dissociated embryonic D14 rat ventral mesencephalic cells were used to test the potential of EPO mimetic compounds to protect primary dopaminergic neurons. […] The cells were plated in 48-well poly-D-lysine coated plates using a microisland technique. The microislands were seeded into dry plates in 10 uL aliquots of 3000 cells/uL and incubated at 37° C. for 1 h to allow for adhesion. […] On day 3, the medium was replaced with 6.25 uM 6-hydroxydopamine (6-OHDA, Sigma) for a 40 minute incubation. The toxin was then removed and the cells were cultured for an additional 2 days. On day 5, the cells were fixed, permeabilized and stained for tyrosine hydroxylase-immunoreactive (THir) neurons.

[2] = test system: human CD34+ hematopoietic stem cells; experiment: Proliferation and differentiation of primary human CD34+ cells; assay type: cell-based
Method: Compound 10 was tested at different concentrations for its ability to induce proliferation and differentiation of human CD34+ hematopoietic stem cells. Human CD34+ cells were purified by (FIG. 6A) immunomagnetic beads (>90% purity, purchased from Stem Cell Technologies) or (FIG. 6B) cell sorting (at Blood Systems Research Institute) and the cells were cultured in the presence of compounds for eight (FIG. 6A) or eleven (FIG. 6B) days. (FIG. 6A) The level of cell growth and survival was measured based on ATP levels (CellTiterGlo reagent), or (FIG. 6B) the expression level of CD235a was analyzed by flow cytometry as a marker for cell maturation. Cell survival was analyzed using the CellTiterGlo reagent to measure ATP levels as a marker of metabolically active cells that have not undergone apoptosis, and expression of CD235a as a marker of erythroid cell differentiation and as a specific marker for EPO-like erythropoietic activity.

primary human neurons = experiment: Neuroprotection of primary human neurons against staurosporine; assay type: cell-based; settings: 47 days in culture, compound 24 h, then staurosporine 500 nM 24 h, FIG. 3B
Method: A) Primary rat cortical neurons were isolated from micro-surgically dissected regions of day 18 embryonic rat brain (Brain Bits, LLC, Springfield, Ill.) and cultured for 12 days in vitro. Then, Compounds 5-7 were added for 24 h. Next, NMDA (50 uM) was added and the cells were cultured for an additional 24 hours. Cells cultured without the insult were considered to represent 0% neuron death. The data represent mean±SEM of six replicate cultures and * indicates P value ≦0.05. B) Primary micro-dissected fetal brain tissue was obtained from a commercial source (Advanced Bioscience Resources, Inc., Alameda, Calif.). […] Staurosporine (500 nM) was added and the cells were cultured for an additional 24 hours. Cells cultured without the insult were considered to represent 0% neuron death. The data represent mean±SEM of six replicate cultures and * indicates P value ≦0.05.

frataxin [3] = experiment: Frataxin protein levels in primary human fetal neurons (ELISA); assay type: cell-based; settings: 28 days in culture, 24 h incubation, FIG. 4B
Method: The effects of the compounds on frataxin protein levels in cells were analyzed. […] Embryonic mouse cell line P19 was differentiated into neuronal cells in the presence of retinoic acid and frataxin levels were measured (FIG. 4A). Frataxin levels were measured after 24 h by multi-species frataxin-ELISA (MitoSciences) and compared to total protein levels. The data represent mean±SEM. Primary human fetal neurons (28 days in culture) were also incubated for 24 h in the presence of the compounds, and human frataxin levels were measured by ELISA (MitoSciences) and compared to total protein levels (FIG. 4B). The data represent mean±SEM of triplicate measurements. Compounds were also tested for their effects on frataxin levels in cells derived from patients with FRDA. Cultures of patient peripheral blood mononuclear cells (PBMCs) were also used to test the EPO mimetic compounds for frataxin enhancement in frataxin-deficient cells. Compound 1 and Compounds 5-6 enhanced frataxin levels in these patient cells at concentration 1 uM or lower.

EPO receptor [4] = target: T1, EPO receptor (Homo sapiens, UniProt P19235); experiment: EPO receptor phosphorylation in primary human fetal neural cells (phospho-EPOR ELISA); assay type: cell-based; settings: FIG. 5A; for EPO receptor phosphorylation: 10 min incubation; for level of receptor activation compared with recombinant human EPO: recombinant human EPO 10 IU/ml
T1 construct: endogenous in cells; host or cells: primary human fetal neural cells cultured from micro-dissected fetal brain tissue (Advanced Bioscience Resources, Inc.)
T1 sequence (P19235 25-508): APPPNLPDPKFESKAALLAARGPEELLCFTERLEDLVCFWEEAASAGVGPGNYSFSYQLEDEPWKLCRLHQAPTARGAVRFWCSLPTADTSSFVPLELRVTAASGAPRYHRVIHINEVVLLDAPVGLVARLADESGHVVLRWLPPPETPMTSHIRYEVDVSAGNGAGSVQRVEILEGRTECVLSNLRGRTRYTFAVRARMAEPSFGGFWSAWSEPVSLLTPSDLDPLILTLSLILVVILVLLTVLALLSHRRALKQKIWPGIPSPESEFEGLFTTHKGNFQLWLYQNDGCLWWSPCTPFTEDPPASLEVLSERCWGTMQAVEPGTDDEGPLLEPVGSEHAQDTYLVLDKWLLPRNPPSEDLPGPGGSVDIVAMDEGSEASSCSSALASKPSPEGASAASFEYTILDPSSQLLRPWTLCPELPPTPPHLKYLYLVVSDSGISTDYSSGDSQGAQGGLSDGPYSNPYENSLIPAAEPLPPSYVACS
Method: (§1) Primary micro-dissected fetal brain tissue was obtained from a commercial source (Advanced Bioscience Resources, Inc., Alameda, Calif.). Cultured primary human fetal neural cells (3 h, 1 day, 17 days, or 26 days in culture) were incubated with Compound 5, Compound 6, or controls for 10 min (FIG. 5A). Phospho-EPOR was detected by ELISA (R&D Systems). […] Human erythropoietic cell line TF-1 was cultured for 10 min in the presence of Compound 5, Compound 6, or the controls, and phospho-EPOR was detected by ELISA (R&D Systems). The data represent mean±SEM of triplicate cultures. […] The receptor activation results were consistent with functional cell based assays using primary human CD34+ bone marrow progenitor cells and erythroleukemia cell line TF-1.

EPO receptor [5] = experiment: EPO receptor phosphorylation in erythroleukemia cell line TF-1 (phospho-EPOR ELISA); assay type: cell-based, human; settings: TF-1, 10 min, FIG. 5B
Method: as §1

TF-1 cells = experiment: Proliferation of TF-1 cells; assay type: cell-based, human; settings: at concentrations that provided significant neuroprotective effects
rats [6] = experiment: Kidney and CNS protection against DMA + Cremophor EL toxicity in rats; assay type: in vivo, rat; settings: DMA + CrEL 2.5 mL/kg each IP
Method: High-dose N,N-dimethylacetamide (DMA)+Cremophor EL (CrEL) (2.5 mL/kg each, IP) was used to induce acute CNS and organ toxicity, and the potential of Compound 5 to protect the rats was studied.

rats [7] = settings: rat model of MCA occlusion (Brines et al. 2000); cited from earlier work
frataxin [8] = settings: 8 FRDA patients, open label pilot trial (Boesch et al. 2008); cited from earlier work
frataxin [9] = settings: patients with chronic kidney disease, rhEPO infusion for anemia (Sturm et al. 2005); cited from earlier work
[10] = human, intravenous administration (Xenocostas et al. 2005); cited from earlier work
[11] = NS = RLU increased <25% at 5 uM

## Cc1cc(C)n2nc(SCCOc3ccc(Cl)cc3)nc2n1 [Example 1, 2-{[2-(4-chlorophenoxy)ethyl]sulfanyl}-5,7-dimethyl-[1,2,4]triazolo[1,5-a]pyrimidine]
PC12 cells; 1 uM, FIG. 1, at least comparable to rhEPO
  protection of PC12 cells (cell viability): significant effect
PC12 cells; 5 uM vs rhEPO 10 U/ml, FIG. 1
  level of protection of PC12 cells compared with rhEPO: higher level of protection than rhEPO
PC12 cells; [11]
  minimal effective concentration: < 5 µM
[1]; 1 uM
  protection of dopaminergic neurons from 6-OHDA toxicity: significantly protected

## COc1ccc(NC(=O)CSc2nc3nc(C)cc(C)n3n2)cc1 [Example 10, 2-({5,7-dimethyl-[1,2,4]triazolo[1,5-a]pyrimidin-2-yl}sulfanyl)-N-(4-methoxyphenyl)acetamide]
PC12 cells; [11]
  PC12 cell proliferation (CellTiter-Glo ®) Concentration at which RLU increased >25% compared to medium control: NS (RLU increased <25% when compounds were tested at 5 uM)
[2]; eight days culture, FIG. 6A
  CD34+ progenitor cell proliferation (ATP levels, CellTiterGlo): dose-dependent induction of CD34+ progenitor cell proliferation
[2]; eleven days culture, FIG. 6B
  differentiation into erythroid cells (CD235a expression, flow cytometry): differentiation into erythroid cells expressing CD235a

## Cc1cc(C)n2nc(OCCOc3ccc(Cl)cc3)nc2n1 [Example 11, 2-[2-(4-chlorophenoxy)ethoxy]-5,7-dimethyl-[1,2,4]triazolo[1,5-a]pyrimidine]
PC12 cells; [11]
  minimal effective concentration: < 5 µM
Primary human neurons
  neuroprotective effect (neuron death): Significant protective effects
Frataxin [3]
  frataxin protein levels: increased frataxin protein levels
EPO receptor [4]
  EPO receptor phosphorylation: increased EPO receptor phosphorylation in a dose-dependent manner
  level of receptor activation compared with recombinant human EPO: comparable to that induced by recombinant human EPO
EPO receptor [5]
  EPO receptor activation (phospho-EPOR): did not activate EPO receptor
TF-1 cells
  proliferation of TF-1 cells: did not induce proliferation
Rats [6]
  CNS toxicity of DMA/CrEL: prevented the CNS toxicity
  response of the rats to formalin injection: normalized the response
Rats [6]; FIG. 8
  kidney-protective effects measured by hypoproteinemia in serum: Kidney-protective effects

## Cc1cc(C)n2nc(OCCN(CCO)c3ccccc3)nc2n1 [Example 13, 2-{[2-({5,7-Dimethyl-[1,2,4]triazolo[1,5-a]pyrimidin-2-yl}oxy)ethyl](phenyl)amino}ethan-1-ol]
PC12 cells; [11]
  minimal effective concentration: < 5 µM
Primary human neurons
  neuroprotective effect (neuron death): Significant protective effects
Frataxin [3]
  frataxin protein levels: increased frataxin protein levels
EPO receptor [4]
  EPO receptor phosphorylation: increased EPO receptor phosphorylation in a dose-dependent manner
  level of receptor activation compared with recombinant human EPO: comparable to that induced by recombinant human EPO
EPO receptor [5]
  EPO receptor activation (phospho-EPOR): did not activate EPO receptor
TF-1 cells
  proliferation of TF-1 cells: did not induce proliferation

## rhEPO: recombinant human (rh)EPO, erythropoietin; positive control
EPO receptor [5]
  EPO receptor activation (phospho-EPOR): effective
[1]; 10 IU/ml
  protection of dopaminergic neurons from 6-OHDA toxicity: significantly protected
Rats [7]
  reduction of infarct volume: 50-75%
Frataxin [8]
  increase in frataxin in lymphocytes: 24%
Frataxin [9]
  increase in frataxin levels in peripheral blood mononuclear cells: 2-3 fold
[10]
  concentration in cerebrospinal fluid lower than in circulation: more than 1000 fold
